Results published in patent publication US20250197372A1 (priority 2020, published 2025).
pIC50: −log10 of the molar value.

Columns and labels:
Format in all cases: biochemical
[1] = biological target: T1, recombinant alpha-glucosidase I (human full-length glucosidase I, Glu 1) (Homo sapiens, UniProt Q13724); assay: Alpha-glucosidase I assay (Amplex Red glucose detection, synthetic trisaccharide substrate); conditions: Glucosidase 1; read-out: Glu 1 IC50
T1 construct: 6-His (C); made in house; host or cells: HEK-293T cells transduced with BacMam virus (virus raised in Sf9)
T1 sequence (Q13724 1-837): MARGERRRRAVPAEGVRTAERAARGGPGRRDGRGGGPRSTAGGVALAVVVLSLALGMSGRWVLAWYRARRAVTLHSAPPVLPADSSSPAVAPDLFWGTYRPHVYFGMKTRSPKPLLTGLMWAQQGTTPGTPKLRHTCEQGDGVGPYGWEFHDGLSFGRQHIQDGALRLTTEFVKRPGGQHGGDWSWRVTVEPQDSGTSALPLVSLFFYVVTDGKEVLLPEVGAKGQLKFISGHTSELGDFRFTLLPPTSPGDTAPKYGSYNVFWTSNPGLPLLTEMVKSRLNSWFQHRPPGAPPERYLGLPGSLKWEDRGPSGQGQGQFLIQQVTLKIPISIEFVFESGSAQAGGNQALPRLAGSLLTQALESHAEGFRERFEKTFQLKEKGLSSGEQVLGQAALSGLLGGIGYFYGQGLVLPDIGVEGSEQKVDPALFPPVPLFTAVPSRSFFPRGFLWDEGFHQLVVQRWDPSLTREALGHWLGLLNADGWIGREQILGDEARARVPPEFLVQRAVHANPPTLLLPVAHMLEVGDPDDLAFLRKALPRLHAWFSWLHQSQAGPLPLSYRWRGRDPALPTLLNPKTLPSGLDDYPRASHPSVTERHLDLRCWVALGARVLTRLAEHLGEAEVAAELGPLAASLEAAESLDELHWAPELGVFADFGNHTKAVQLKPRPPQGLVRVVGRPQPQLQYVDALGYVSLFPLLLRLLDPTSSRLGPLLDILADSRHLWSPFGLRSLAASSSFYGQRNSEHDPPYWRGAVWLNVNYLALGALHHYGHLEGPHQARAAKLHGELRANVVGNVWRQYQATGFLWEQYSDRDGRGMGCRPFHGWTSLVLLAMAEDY
Method in brief: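 Compound dilution series incubated 60 min at 37° C with recombinant His-tagged human glucosidase I ([…]), after which trisaccharide substrate analog was added for 90 min at 37° C. Reaction quenched with 1.5M Tris pH 8; D-glucose detected by Amplex Red fluorescence, 560/590 nm. 4-PL curve fit of percent inhibition gave IC50.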

[2] = biological target: T2, recombinant alpha-glucosidase II (murine full-length glucosidase II, alpha and beta subunits, Glu 2) (Mus musculus, UniProt Q8BHN3); assay: Alpha-glucosidase II assay (4-methylumbelliferyl-alpha-D-pyranoside substrate, fluorescence); conditions: Glucosidase 2; read-out: Glu2 IC50
T2 construct: made in house; host or cells: HEK-293T cells transduced with BacMam viruses (75% alpha, 25% beta); protein harvested from culture supernatant
T2 sequence (O08795 15-521): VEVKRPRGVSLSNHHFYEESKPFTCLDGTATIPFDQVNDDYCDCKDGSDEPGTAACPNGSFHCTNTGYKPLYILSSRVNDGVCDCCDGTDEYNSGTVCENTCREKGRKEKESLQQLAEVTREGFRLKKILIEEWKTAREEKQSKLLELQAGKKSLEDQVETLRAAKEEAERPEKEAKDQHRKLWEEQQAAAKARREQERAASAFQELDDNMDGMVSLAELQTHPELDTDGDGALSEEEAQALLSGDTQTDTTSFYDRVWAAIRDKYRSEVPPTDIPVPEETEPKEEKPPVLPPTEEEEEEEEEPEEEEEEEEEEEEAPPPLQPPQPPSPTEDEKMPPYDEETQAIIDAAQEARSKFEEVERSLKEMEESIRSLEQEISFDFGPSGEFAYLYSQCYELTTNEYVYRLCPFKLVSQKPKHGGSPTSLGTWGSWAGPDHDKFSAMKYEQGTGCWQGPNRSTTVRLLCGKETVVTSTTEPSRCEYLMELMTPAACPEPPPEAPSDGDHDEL
T2 sequence (Q8BHN3 33-944): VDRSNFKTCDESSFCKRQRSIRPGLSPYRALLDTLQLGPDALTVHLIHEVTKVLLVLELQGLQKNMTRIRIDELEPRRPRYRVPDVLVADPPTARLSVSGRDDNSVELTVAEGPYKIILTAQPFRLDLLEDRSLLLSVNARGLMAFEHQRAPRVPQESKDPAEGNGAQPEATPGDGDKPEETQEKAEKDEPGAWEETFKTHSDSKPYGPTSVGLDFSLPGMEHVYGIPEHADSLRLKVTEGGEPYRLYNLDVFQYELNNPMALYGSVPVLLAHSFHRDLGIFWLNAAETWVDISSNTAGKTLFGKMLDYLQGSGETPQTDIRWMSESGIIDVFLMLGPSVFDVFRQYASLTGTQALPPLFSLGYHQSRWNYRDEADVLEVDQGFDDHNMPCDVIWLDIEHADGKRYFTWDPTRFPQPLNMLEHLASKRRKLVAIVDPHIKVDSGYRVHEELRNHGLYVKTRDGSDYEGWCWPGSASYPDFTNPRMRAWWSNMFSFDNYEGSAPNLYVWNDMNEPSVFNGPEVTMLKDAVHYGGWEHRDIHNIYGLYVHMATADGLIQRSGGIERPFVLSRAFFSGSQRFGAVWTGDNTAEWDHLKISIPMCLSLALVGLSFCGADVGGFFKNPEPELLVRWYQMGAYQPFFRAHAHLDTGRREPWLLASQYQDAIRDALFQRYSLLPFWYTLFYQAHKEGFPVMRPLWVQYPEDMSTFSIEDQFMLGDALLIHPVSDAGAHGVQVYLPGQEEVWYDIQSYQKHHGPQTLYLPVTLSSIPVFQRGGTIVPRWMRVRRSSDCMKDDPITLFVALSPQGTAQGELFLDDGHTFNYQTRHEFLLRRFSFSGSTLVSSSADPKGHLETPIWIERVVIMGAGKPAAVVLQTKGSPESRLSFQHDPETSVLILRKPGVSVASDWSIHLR

[3] = biological target: rat maltase (partially purified alpha-glucosidase from intestinal rat powder); assay: Intestinal alpha-glucosidase assay, maltose substrate (Glucose GO Kit)
Method in brief: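 Enzyme from intestinal rat powder, partially purified, is exposed to compound for 60 min at 37 °C. Disaccharide substrate (maltose or sucrose respectively) then reacts 30 min at 37 °C. Heat-stopped samples are assayed for glucose, and percent inhibition versus concentration gives IC50 via 4-PL.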

[4] = biological target: rat sucrase (partially purified alpha-glucosidase from intestinal rat powder) (Rattus norvegicus, UniProt P23739); assay: Intestinal alpha-glucosidase assay, sucrose substrate (Glucose GO Kit)
rat sucrase (partially purified alpha-glucosidase from intestinal rat powder), sequence (P23739 whole entry): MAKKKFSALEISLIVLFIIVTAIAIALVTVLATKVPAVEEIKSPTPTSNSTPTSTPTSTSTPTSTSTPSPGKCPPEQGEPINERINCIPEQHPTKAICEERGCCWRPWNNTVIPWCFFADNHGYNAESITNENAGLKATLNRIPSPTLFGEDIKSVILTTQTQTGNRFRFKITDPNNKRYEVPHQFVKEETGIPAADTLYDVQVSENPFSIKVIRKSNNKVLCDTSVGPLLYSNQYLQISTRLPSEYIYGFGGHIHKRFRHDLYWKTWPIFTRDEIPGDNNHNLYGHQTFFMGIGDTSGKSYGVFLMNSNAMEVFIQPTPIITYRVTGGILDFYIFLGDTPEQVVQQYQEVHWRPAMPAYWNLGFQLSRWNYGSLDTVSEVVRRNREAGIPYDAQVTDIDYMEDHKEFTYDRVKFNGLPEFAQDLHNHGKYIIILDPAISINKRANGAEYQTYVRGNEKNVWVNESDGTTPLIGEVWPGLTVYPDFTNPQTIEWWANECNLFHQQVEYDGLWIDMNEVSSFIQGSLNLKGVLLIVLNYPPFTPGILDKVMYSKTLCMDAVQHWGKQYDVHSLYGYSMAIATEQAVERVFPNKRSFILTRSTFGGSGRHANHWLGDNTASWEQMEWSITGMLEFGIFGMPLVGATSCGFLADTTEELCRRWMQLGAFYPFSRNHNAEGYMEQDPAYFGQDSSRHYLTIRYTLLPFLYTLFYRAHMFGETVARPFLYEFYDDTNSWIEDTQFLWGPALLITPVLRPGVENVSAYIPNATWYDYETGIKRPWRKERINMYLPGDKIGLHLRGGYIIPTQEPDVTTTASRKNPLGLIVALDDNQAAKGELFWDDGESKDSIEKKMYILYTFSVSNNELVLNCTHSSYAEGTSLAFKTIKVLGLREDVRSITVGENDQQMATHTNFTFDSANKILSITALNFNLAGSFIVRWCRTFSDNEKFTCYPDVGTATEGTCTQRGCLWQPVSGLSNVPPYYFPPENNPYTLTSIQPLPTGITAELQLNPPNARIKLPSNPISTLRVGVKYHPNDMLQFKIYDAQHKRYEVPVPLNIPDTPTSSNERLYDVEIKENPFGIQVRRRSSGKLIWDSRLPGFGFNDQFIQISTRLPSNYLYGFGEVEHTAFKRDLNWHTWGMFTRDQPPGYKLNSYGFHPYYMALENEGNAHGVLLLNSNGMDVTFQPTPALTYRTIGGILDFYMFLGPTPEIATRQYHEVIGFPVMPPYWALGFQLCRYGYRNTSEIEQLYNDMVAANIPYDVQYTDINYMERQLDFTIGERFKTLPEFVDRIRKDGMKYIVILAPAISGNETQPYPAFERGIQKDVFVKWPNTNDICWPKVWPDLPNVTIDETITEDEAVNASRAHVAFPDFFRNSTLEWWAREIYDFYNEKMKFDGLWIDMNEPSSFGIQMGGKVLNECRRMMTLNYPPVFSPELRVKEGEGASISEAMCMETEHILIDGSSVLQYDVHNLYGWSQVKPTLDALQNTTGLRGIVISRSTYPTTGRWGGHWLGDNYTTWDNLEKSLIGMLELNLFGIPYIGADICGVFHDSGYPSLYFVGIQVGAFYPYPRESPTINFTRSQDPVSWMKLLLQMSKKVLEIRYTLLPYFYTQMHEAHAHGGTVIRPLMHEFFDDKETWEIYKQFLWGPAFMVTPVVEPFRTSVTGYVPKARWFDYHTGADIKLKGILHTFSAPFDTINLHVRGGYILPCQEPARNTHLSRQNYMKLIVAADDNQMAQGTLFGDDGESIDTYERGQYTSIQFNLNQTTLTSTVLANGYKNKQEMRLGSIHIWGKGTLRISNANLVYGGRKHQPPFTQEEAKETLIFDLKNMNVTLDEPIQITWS
Method in brief: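 First step: 60 min, 37 °C, compound with partially purified rat intestinal alpha-glucosidase. Next, maltose or sucrose for 30 min at 37 °C, ended at 90 °C for 5 min. Glucose quantified enzymatically; concentration–inhibition data fitted 4-PL for IC50.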

Row | SMILES | pIC50 [1] | pIC50 [2] | pIC50 [3] | pIC50 [4]
1 | O=[N+]([O-])c1cc(C2=COCCO2)ccc1NCc1ccc(CN2C[C@H](O)[C@@H](O)[C@H](O)[C@H]2CO)cc1 [Compound 1099, (2R,3R,4R,5S)-1-{[4-({[4-(5,6-dihydro-1,4-dioxin-2-yl)-2-nitrophenyl]amino}methyl)phenyl]methyl}-2-(hydroxymethyl)piperidine-3,4,5-triol] | > 9.00 | > 9.00 | > 9.00 | > 9.00
2 | O=[N+]([O-])c1cc(-c2ccc[nH]2)ccc1NCc1ccc(CN2C[C@H](O)[C@@H](O)[C@H](O)[C@H]2CO)cc1 [Compound 1100, (2R,3R,4R,5S)-2-(hydroxymethyl)-1-{[4-({[2-nitro-4-(1H-pyrrol-2-yl)phenyl]amino}methyl)phenyl]methyl}piperidine-3,4,5-triol] | > 9.00 | > 9.00 | > 9.00 | 8.70
3 | O=[N+]([O-])c1cc(-c2cccnn2)ccc1NCc1ccc(CN2C[C@H](O)[C@@H](O)[C@H](O)[C@H]2CO)cc1 [Compound 1101, (2R,3R,4R,5S)-2-(hydroxymethyl)-1-{[4-({[2-nitro-4-(pyridazin-3-yl)phenyl]amino}methyl)phenyl]methyl}piperidine-3,4,5-triol] | > 9.00 | 7.37 | > 9.00 | 8.40
4 | O=[N+]([O-])c1cc(-c2ncccn2)ccc1NCc1ccc(CN2C[C@H](O)[C@@H](O)[C@H](O)[C@H]2CO)cc1 [Compound 1102, (2R,3R,4R,5S)-2-(hydroxymethyl)-1-{[4-({[2-nitro-4-(pyrimidin-2-yl)phenyl]amino}methyl)phenyl]methyl}piperidine-3,4,5-triol] | > 9.00 | 7.19 | > 9.00 | > 9.00
5 | [N-]=[N+]=Nc1ccc(NCCC23CC(CCN4C[C@H](O)[C@@H](O)[C@H](O)[C@H]4CO)(C2)C3)c([N+](=O)[O-])c1 [Compound 1103, (2R,3R,4R,5S)-1-[2-(3-{2-[(4-azido-2-nitrophenyl)amino]ethyl}bicyclo[1.1.1]pentan-1-yl)ethyl]-2-(hydroxymethyl)piperidine-3,4,5-triol] | 6.57 | 8.30 | 6.55 | 6.24
6 | [N-]=[N+]=Nc1ccc(NCc2ccc(Cc3ccc(CN4C[C@H](O)[C@@H](O)[C@H](O)[C@H]4CO)cc3)cc2)c([N+](=O)[O-])c1 [Compound 1105, (2R,3R,4R,5S)-1-({4-[(4-{[(4-azido-2-nitrophenyl)amino]methyl}phenyl)methyl]phenyl}methyl)-2-(hydroxymethyl)piperidine-3,4,5-triol] | 7.80 | 6.82 | 8.22 | 7.92
7 | [N-]=[N+]=Nc1ccc(NCC[C@H]2CC[C@@H](CCN3C[C@H](O)[C@@H](O)[C@H](O)[C@H]3CO)CC2)c([N+](=O)[O-])c1 [Compound 1106, (2R,3R,4R,5S)-2-(hydroxymethyl)-1-{2-[(1s,4s)-4-{2-[(4-azido-2-nitrophenyl)amino]ethyl}cyclohexyl]ethyl}piperidine-3,4,5-triol] | > 9.00 | 8.05 | 7.51 | 8.22
8 | [N-]=[N+]=Nc1ccc(NCC[C@H]2CC[C@H](CCN3C[C@H](O)[C@@H](O)[C@H](O)[C@H]3CO)CC2)c([N+](=O)[O-])c1 [Compound 1107, (2R,3R,4R,5S)-2-(hydroxymethyl)-1-{2-[(1r,4r)-4-{2-[(4-azido-2-nitrophenyl)amino]ethyl}cyclohexyl]ethyl}piperidine-3,4,5-triol] | 6.97 | 7.39 | 6.60 | 6.24
9 | O=[N+]([O-])c1cc(CN2CCCO2)ccc1NCCc1ccc(CCN2C[C@H](O)[C@@H](O)[C@H](O)[C@H]2CO)cc1 [Compound 1108, (2R,3R,4R,5S)-2-(hydroxymethyl)-1-(2-{4-[2-({2-nitro-4-[(1,2-oxazolidin-2-yl)methyl]phenyl}amino)ethyl]phenyl}ethyl)piperidine-3,4,5-triol] | 6.61 | 8.15 | 7.01 | 6.04
10 | O=[N+]([O-])c1cc(-c2cccnn2)ccc1NCCc1ccc(CCN2C[C@H](O)[C@@H](O)[C@H](O)[C@H]2CO)cc1 [Compound 1109, (2R,3R,4R,5S)-2-(hydroxymethyl)-1-{2-[4-(2-{[2-nitro-4-(pyridazin-3-yl)phenyl]amino}ethyl)phenyl]ethyl}piperidine-3,4,5-triol] | 8.22 | > 9.00 | 9.00 | 6.35
11 | O=[N+]([O-])c1cc(-c2ccncc2)ccc1NCCc1ccc(CCN2C[C@H](O)[C@@H](O)[C@H](O)[C@H]2CO)cc1 [Compound 1110, (2R,3R,4R,5S)-2-(hydroxymethyl)-1-{2-[4-(2-{[2-nitro-4-(pyridin-4-yl)phenyl]amino}ethyl)phenyl]ethyl}piperidine-3,4,5-triol] | > 9.00 | > 9.00 | > 9.00 | 7.20
12 | O=[N+]([O-])c1cc(-c2ncccn2)ccc1NCCc1ccc(CCN2C[C@H](O)[C@@H](O)[C@H](O)[C@H]2CO)cc1 [Compound 1111, (2R,3R,4R,5S)-2-(hydroxymethyl)-1-{2-[4-(2-{[2-nitro-4-(pyrimidin-2-yl)phenyl]amino}ethyl)phenyl]ethyl}piperidine-3,4,5-triol] | 7.17 | 8.00 | > 9.00 | 6.11
13 | O=[N+]([O-])c1cc(-c2ncco2)ccc1NCCc1ccc(CCN2C[C@H](O)[C@@H](O)[C@H](O)[C@H]2CO)cc1 [Compound 1112, (2R,3R,4R,5S)-2-(hydroxymethyl)-1-{2-[4-(2-{[2-nitro-4-(1,3-oxazol-2-yl)phenyl]amino}ethyl)phenyl]ethyl}piperidine-3,4,5-triol] | 7.05 | 7.00 | 9.00 | 6.04
14 | O=S(=O)(Nc1cc(NCCCCCCN2C[C@H](O)[C@@H](O)[C@H](O)[C@H]2CO)cc(-c2ncccn2)c1)C1CC1 [Compound 1114, N-[3-(pyrimidin-2-yl)-5-({6-[(2R,3R,4R,5S)-3,4,5-trihydroxy-2-(hydroxymethyl)piperidin-1-yl]hexyl}amino)phenyl]cyclopropanesulfonamide] | 6.97 | 8.52 | 8.30 | 7.28
15 | [N-]=[N+]=Nc1ccc(NCCc2cc(CCN3C[C@H](O)[C@@H](O)[C@H](O)[C@H]3CO)cc(C3CCCCC3)c2)c([N+](=O)[O-])c1 [Compound 1115, (2R,3R,4R,5S)-1-[2-(3-{2-[(4-azido-2-nitrophenyl)amino]ethyl}-5-cyclohexylphenyl)ethyl]-2-(hydroxymethyl)piperidine-3,4,5-triol] | 7.00 | 5.97 | 5.17 | 4.98
16 | COC(=O)c1cc(Cl)cc(NCCc2ccc(CCN3C[C@H](O)[C@@H](O)[C@H](O)[C@H]3CO)cc2)c1 [Compound 1116, methyl 3-chloro-5-{[2-(4-{2-[(2R,3R,4R,5S)-3,4,5-trihydroxy-2-(hydroxymethyl)piperidin-1-yl]ethyl}phenyl)ethyl]amino}benzoate] | 5.87 | > 9.00 | 6.79 | 5.91
